Assay results from article PMC8752738, “A propolis-derived small molecule ameliorates metabolic syndrome in obese mice by targeting the CREB/CRTC2 transcriptional complex” (Nature Communications, 2022).
“And” between values parts separate entries of the source, which are not always exact repeats. Equal entries are not always repeated.

Tested on: tissue mRNA levels
Experiment: Quantitative PCR of tissue gene expression in treated mice;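 for mRNA levels Retn: daily intraperitoneal dosing for 5 weeks versus vehicle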;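 for mRNA levels Srebf-1c: daily intraperitoneal dosing for 5 weeks versus vehicle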;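 for mRNA levels Srebf-2: daily intraperitoneal dosing for 5 weeks versus vehicle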;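 for mRNA levels Tnfaip2: daily intraperitoneal dosing for 5 weeks versus vehicle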
Type: in vivo, mouse
Parameters: key to mRNA levels Scap / mRNA levels Insig1 / mRNA levels Ldlr / mRNA levels Mttp / mRNA levels Atgl / mRNA levels Tnfaip2 / mRNA levels Rxra / mRNA levels Srebf1 / mRNA levels Ucp2: mRNA level normalized to ribosomal L32 mRNA (internal control)
Protocol: Total RNA from cells and tissues was extracted by Trizol (Invitrogen) and reverse-transcribed into cDNA using the prime script RT reagent kit with gDNA eraser (Takara). The mRNA levels were determined using the SYBR-green PCR kit (Takara) with ABIPRISM 7900HT Sequence detector (ABI) according to the manufacturer’s protocol. The quantitative qPCR primers used in this work are listed in Supplementary Table 1. Ribosomal L32 mRNA levels were used as an internal control.

[1] = Figure 6d, white fat (WF) tissue of DIO mice, individual animals
[2] = db/db mice, liver, individual mouse, relative to VEH
[3] = liver of DIO mice, individual animals, n=5, relative to VEH

SMILES: CC(C)=CCc1cc(C=CC(=O)O)cc(CC=C(C)C)c1O [APC, 3,5-diprenyl-4-hydroxycinnamic acid]
- mRNA levels Retn [1]: 0.123 and 0.143 and 0.2381 and 0.235 and 0.5597 and 0.5846
- mRNA levels Scd1 [1]: 0.2084 and 0.3568 and 0.6736 and 0.7934 and 0.506 and 0.7156
- mRNA levels Srebf-1c [1]: 0.5354 and 0.1144 and 0.4679 and 0.2361 and 0.4842 and 0.3947
- mRNA levels Srebf-2 [1]: 0.5798 and 0.5629 and 0.8096 and 0.529 and 0.7852 and 0.6266
- mRNA levels Tnfaip2 [1]: 1.35 and 1.386 and 0.7621 and 0.8823 and 0.8616 and 0.7122
- Mean Diff. (Veh. vs. treated; head of the quantity not shown, section just before Figure 7h) (WT mice, Met 200mg/kg or APC-20): 0.5814
- CREB targets in tissues: Brain-Creb, Mean of APC (brain, Creb mRNA, group mean): 1.036
- CREB targets in tissues: Brain-Creb (brain, Creb mRNA, individual animals): 1.197 and 1.012 and 0.7996 and 1.136
- CREB targets in tissues: Brain-Nr4a1, Mean of APC (brain, Nr4a1 mRNA, group mean): 1.211
- CREB targets in tissues: Brain-Nr4a1 (brain, Nr4a1 mRNA, individual animals): 1.274 and 1.137 and 0.9545 and 1.476
- G6pc mRNA levels in the liver of db/db, Mean of APC (db/db mice, liver, group mean): 0.7471
- Pck1 mRNA levels in the liver of db/db, Mean of APC (db/db mice, liver, group mean): 0.6226
- Pgc1a mRNA levels in the liver of db/db, Mean of APC (db/db mice, liver, group mean): 0.7977
- Pgc1beta mRNA levels in the liver of db/db, Mean of APC (db/db mice, liver, group mean): 0.5441
- G6pc mRNA levels in the liver of db/db [2]: 0.8066 and 0.775 and 0.6553 and 0.7287 and 0.77
- Pck1 mRNA levels in the liver of db/db [2]: 0.6945 and 0.6263 and 0.76 and 0.3641 and 0.668
- Pgc1a mRNA levels in the liver of db/db [2]: 0.6615 and 0.9739 and 0.731 and 0.852 and 0.77
- Pgc1beta mRNA levels in the liver of db/db [2]: 0.4871 and 0.4573 and 0.6546 and 0.4823 and 0.6391
- CREB targets in tissues: Intestine-Creb, Mean of APC (intestine, Creb mRNA, group mean): 0.8467
- CREB targets in tissues: Intestine-Creb (intestine, Creb mRNA, individual animals): 1.179 and 0.6319 and 0.7341 and 0.8415
- CREB targets in tissues: Intestine-Gcg, Mean of APC (intestine, Gcg mRNA, group mean): 1.011
- CREB targets in tissues: Intestine-Gcg (intestine, Gcg mRNA, individual animals): 1.309 and 1.259 and 0.7551 and 0.7184
- CREB targets in tissues: Intestine-Nr4a1, Mean of APC (intestine, Nr4a1 mRNA, group mean): 0.8751
- CREB targets in tissues: Intestine-Nr4a1 (intestine, Nr4a1 mRNA, individual animals): 0.8692 and 0.9136 and 0.8672 and 0.8504
- CREB targets in tissues: Kidney-Creb, Mean of APC (kidney, Creb mRNA, group mean): 1.013
- CREB targets in tissues: Kidney-Creb (kidney, Creb mRNA, individual animals): 1.268 and 1.031 and 0.912 and 0.8402
- CREB targets in tissues: Kidney-Nr4a1, Mean of APC (kidney, Nr4a1 mRNA, group mean): 1.291
- CREB targets in tissues: Kidney-Nr4a1 (kidney, Nr4a1 mRNA, individual animals): 1.347 and 1.276 and 1.454 and 1.087
- mRNA levels of nuclear receptor in the liver of DIO mice: Lxrα [3]: 0.586 and 0.8678 and 0.6768 and 0.6509 and 0.6469
- mRNA levels of nuclear receptor in the liver of DIO mice: Pparα [3]: 0.9724 and 0.9732 and 1.109 and 1.163 and 1.051
- mRNA levels of nuclear receptor in the liver of DIO mice: Pparγ [3]: 1.158 and 1.005 and 1.0158 and 1.1983 and 1.083
- mRNA levels of nuclear receptor in the liver of DIO mice: Rxrα [3]: 0.9006 and 1.063 and 0.8578 and 0.9925 and 1.111
- mRNA levels of nuclear receptor in the liver of DIO mice: Lxrα, group mean (Mean 1) (liver of DIO mice, mean of N=5): 0.6857
- mRNA levels of nuclear receptor in the liver of DIO mice: Pparα, group mean (Mean 1) (liver of DIO mice, mean of N=5): 1.054
- mRNA levels of nuclear receptor in the liver of DIO mice: Pparγ, group mean (Mean 1) (liver of DIO mice, mean of N=5): 1.092
- mRNA levels of nuclear receptor in the liver of DIO mice: Rxrα, group mean (Mean 1) (liver of DIO mice, mean of N=5): 0.9849
- CREB targets in tissues: Mus-Creb, Mean of APC (muscle, Creb mRNA, group mean): 1.048
- CREB targets in tissues: Mus-Creb (muscle, Creb mRNA, individual animals): 1.0591 (2×) and 0.9897 and 1.082
- CREB targets in tissues: Mus-Nr4a1, Mean of APC (muscle, Nr4a1 mRNA, group mean): 1.244
- CREB targets in tissues: Mus-Nr4a1 (muscle, Nr4a1 mRNA, individual animals): 1.457 (2×) and 0.6913 and 1.369
- CREB targets in tissues: Mus-Pdk1, Mean of APC (muscle, Pdk1 mRNA, group mean): 0.9489
- CREB targets in tissues: Mus-Pdk1 (muscle, Pdk1 mRNA, individual animals): 0.9576 (2×) and 0.8606 and 1.02
- liver mRNA levels of Srebp-1c and 2 in CRTC2 knockout mice (oral 20 mg/kg daily, 3 weeks): did not further decrease
- CREB targets in tissues: Pancreac-C2cd4a, Mean of APC (pancreas, C2cd4a mRNA, group mean): 0.9353
- CREB targets in tissues: Pancreac-C2cd4a (pancreas, C2cd4a mRNA, individual animals): 1.193 and 0.8753 and 0.8055 and 0.8678
- CREB targets in tissues: Pancreac-Creb, Mean of APC (pancreas, Creb mRNA, group mean): 1.238
- CREB targets in tissues: Pancreac-Creb (pancreas, Creb mRNA, individual animals): 1.233 and 1.182 and 1.267 and 1.269
- CREB targets in tissues: Pancreac-Nr4a1, Mean of APC (pancreas, Nr4a1 mRNA, group mean): 1.238
- CREB targets in tissues: Pancreac-Nr4a1 (pancreas, Nr4a1 mRNA, individual animals): 0.9381 and 1.521 and 1.263 and 1.23
- CREB targets in tissues: Spleen-Creb, Mean of APC (spleen, Creb mRNA, group mean): 1.07
- CREB targets in tissues: Spleen-Creb (spleen, Creb mRNA, individual animals): 1.294 and 1.069 and 0.8334 and 1.085
- CREB targets in tissues: Spleen-Nr4a1, Mean of APC (spleen, Nr4a1 mRNA, group mean): 1.115
- CREB targets in tissues: Spleen-Nr4a1 (spleen, Nr4a1 mRNA, individual animals): 1.516 and 1.042 and 0.6673 and 1.233
